{"source": "patent US20240261259A1", "about": "(priority 2021, published 2024)", "system": "FLT3 mutant positive AML", "test": "Clinical response to midostaurin plus chemotherapy, Princess Margaret cohort of 54 AML patients", "type": "in vivo, human", "key": {"[1]": {"conditions": "midostaurin plus chemotherapy, 54 FLT3 mutant-positive AML patients"}}}
{"smiles": "CO[C@@H]1[C@H](N(C)C(=O)c2ccccc2)C[C@H]2O[C@]1(C)n1c3ccccc3c3c4c(c5c6ccccc6n2c5c31)C(=O)NC4", "note": "[midostaurin, N-[(9S,I0R,I IR,I3R)-2,3,I0,I I,I2,I3-hexahydro-I0-methoxy-9-methyl-I-oxo-9,I3-epoxy-IH, 9H-diindolo[1,2,3-gh: 3′,2′,I′-Im]pyrrolo[3,4-j][I, 7]benzodiazonin-I I-yl]-N-methylbenzamide]", "values": [{"measurement": "Responses to midostaurin, average", "setting": "[1]", "value": 84, "unit": "weeks"}, {"measurement": "Responses to midostaurin, range", "setting": "[1]", "value": "0-513 weeks"}, {"measurement": "patients refractory or relapsed at the time of carrying out the analysis", "setting": "of 54 AML patients treated with midostaurin plus chemotherapy", "value": 25, "unit": "patients"}]}
